Assay results from patent US10981953B2, “Method for promoting expression of calreticulin, and synthetic peptide for use in method for promoting expression of calreticulin” (TOAGOSEI CO., LTD., priority 2013, dated 2021).

Experiments:
[1] = tested on: BXM14 cells, a cultured cell line of mouse ES cells; test: Calreticulin expression-promoting activity in ES cells, immunofluorescent antibody technique (Example 4); type: cell-based; conditions: mouse ES cells BXM14, peptide 50 μM, 3 days culture, confocal laser microscopy
Description: The calreticulin expression-promoting activity of the Samples 1 to 12 obtained in Example 1 was investigated. BXM14 cells, a cultured cell line of mouse ES cells (hereunder sometimes called “BXM14”), were used as the test cells. The details of the evaluation test were as follows.
The sample ES cells (BXM14) were seeded to a cell density of about 1×10^4 cells per well on 4-well slides. Using DMEM medium (Wako Pure Chemical, Cat No. 043-30085) containing 15% Knockout™ Serum Replacement (hereunder sometimes called “KSR”; Life Technologies, Cat No. 10828), 0.1 mM Non-essential Amino Acids Solution (hereunder sometimes called “NEAA”; Wako Pure Chemical, Cat No. 139-15651), 0.1 mM 2-mercaptoethanol (Sigma-Aldrich, Cat No. M7522) and 1000 units/mL of StemSure™ LIF, Mouse, recombinant, Solution (hereunder sometimes called “mLIF”; Wako Pure Chemical, Cat No. 199-116051), the cells were cultured overnight in an incubator under conditions of 5% CO2, 37° C. The DMEM medium containing KSR, NEAA, 2-mercaptoethanol and mLIF is also called simply “ES DMEM medium”. […]
(§1) These figures (images) are fluorescence micrographs examining calreticulin expression in each test group, and each combines (merges) a fluorescent image showing results for calreticulin expression in ES cells as measured by the immunofluorescent antibody technique with an image showing nuclear staining by DAPI.

[2] = tested on: iPS cells (clone name 201B2); test: Calreticulin expression-promoting activity in iPS cells, immunofluorescent antibody technique (Example 3); type: cell-based; conditions: human iPS cells 201B2, peptide 10 μM, 5 days culture, confocal laser microscopy
Description: The calreticulin expression-promoting activity of the Samples 1 to 12 obtained in Example 1 was investigated. iPS cells (clone name 201B2, sometimes called simply 201B2 below) established from human fibroblasts were used as the test cells (source: Takahashi K et al., Cell, 131, 861-872 (2007)). These iPS cells were supplied by the Center for iPS Cell Research and Application, Kyoto University.
The test iPS cells (201B2) were seeded to a cell density of about 1×10^4 cells per well on matrigel-coated 8-well slides. Using mTeSR™ 1 medium (Stemcell Technologies) as the medium, the cells were cultured overnight in an incubator under conditions of 5% CO2, 37° C. Following this overnight culture, fresh mTeSR™ medium containing the peptides of Samples 1 to 12 in an amount yielding a peptide concentration of 10 μM was substituted, and the cells were further cultured for 5 days under the same conditions. Every day during this 5-day culture period, the medium was replaced with mTeSR™ 1 medium containing the peptides of Samples 1 to 12 in an amount yielding a peptide concentration of 10 μM. A peptide-free group was established as a control.
After completion of this culture, calreticulin expression in each test group was investigated by the immunofluorescent antibody technique (fluorescent immunostaining) using an anti-calreticulin antibody as in Example 2 except that a mixed solution of 1 vol. methanol and 1 vol. acetone (methanol:acetone=1:1 solution) was used to fix the cells, and the final concentration of the primary antibody was adjusted to 4×10^−3 mg/mL.
as §1, with “figures” for “figures (images)”, “iPS” for “ES”

HeLaS3 cells = test: Calreticulin expression-promoting activity in tumor cells, immunofluorescent antibody technique (Example 2); type: cell-based, human; conditions: peptide 10 μM, 5 days culture, confocal laser microscopy
Text: The calreticulin expression-promoting activity of the peptides of the Samples 1 to 12 obtained in Example 1 above was investigated. The sample cells were HeLaS3 cells (ATCC CCL2.2), a cultured cell line derived from human cervical cancer. These HeLaS3 cells (ATCC CCL2.2) are known as a genomically unstable cultured cell line, which has been confirmed to have multiple chromosome duplications or in other words chromosomal abnormalities (karyotypic abnormalities). The details of the evaluation test are as follows.
HeLaS3 cells were seeded on 8-well slides to a cell density of about 1×10^3 cells per well. […]
A diluted primary antibody solution comprising an anti-calreticulin monoclonal [FMC75] antibody (from mouse, Abcam, Cat. No. ab22683, Lot No. GR56669-4) as the primary antibody prepared with 1% BSA/PBS (−) (PBS (−) containing 1% BSA) to a final concentration of 2.5×10^−3 mg/mL was added to the culture containers of the HeLaS3 cells, and left overnight at 4° C. […] This was then sealed with a cover glass together with an enclosed liquid containing DAPI (4′,6-diamidino-2-phenylindole) (Life Technologies), and fluorescence was observed by confocal laser microscopy. […]

Sequence | fluorescence of the fluorescent label indicating calreticulin (expressed amount of calreticulin) compared with the peptide-free group and Sample 12 [2] | further results
CRAKAGDPC [Sample 1] |  | fluorescence of the fluorescent label indicating calreticulin (amount of calreticulin expression) compared with the peptide-free group and Sample 12 [1]: stronger fluorescence
KKRTLRKNDRKKR CRAKAGDPC (KKRTLRKNDRKKRCRAKAGDPC) [Sample 9] | stronger fluorescence | 
KKRTLRKNDRKKR GPRPPSLEC (KKRTLRKNDRKKRGPRPPSLEC) [Sample 11] | strong fluorescence | 
KKRTLRKNDRKKR NPGASF (KKRTLRKNDRKKRNPGASF) [Sample 10] | strong fluorescence | 
LAARAVRFSEKV [Sample 12] |  | fluorescence of the fluorescent label indicating calreticulin (expressed amount of calreticulin) compared with the peptide-free group (HeLaS3 cells): almost no fluorescence was detected
